Tests used:
Experiment in all cases: Kinase selectivity, scanMAX Kinase assay panel (DiscoverX), % control at 1 uM
Assay type in all cases: binding
[1] = target: T1, scanMAX Kinase assay panel (Homo sapiens, UniProt P29322); conditions: EPHA8; 1 uM; read-out: Percent Control (%)
T1 construct: purchased DiscoverX
T1 sequence (P29322 28-1005): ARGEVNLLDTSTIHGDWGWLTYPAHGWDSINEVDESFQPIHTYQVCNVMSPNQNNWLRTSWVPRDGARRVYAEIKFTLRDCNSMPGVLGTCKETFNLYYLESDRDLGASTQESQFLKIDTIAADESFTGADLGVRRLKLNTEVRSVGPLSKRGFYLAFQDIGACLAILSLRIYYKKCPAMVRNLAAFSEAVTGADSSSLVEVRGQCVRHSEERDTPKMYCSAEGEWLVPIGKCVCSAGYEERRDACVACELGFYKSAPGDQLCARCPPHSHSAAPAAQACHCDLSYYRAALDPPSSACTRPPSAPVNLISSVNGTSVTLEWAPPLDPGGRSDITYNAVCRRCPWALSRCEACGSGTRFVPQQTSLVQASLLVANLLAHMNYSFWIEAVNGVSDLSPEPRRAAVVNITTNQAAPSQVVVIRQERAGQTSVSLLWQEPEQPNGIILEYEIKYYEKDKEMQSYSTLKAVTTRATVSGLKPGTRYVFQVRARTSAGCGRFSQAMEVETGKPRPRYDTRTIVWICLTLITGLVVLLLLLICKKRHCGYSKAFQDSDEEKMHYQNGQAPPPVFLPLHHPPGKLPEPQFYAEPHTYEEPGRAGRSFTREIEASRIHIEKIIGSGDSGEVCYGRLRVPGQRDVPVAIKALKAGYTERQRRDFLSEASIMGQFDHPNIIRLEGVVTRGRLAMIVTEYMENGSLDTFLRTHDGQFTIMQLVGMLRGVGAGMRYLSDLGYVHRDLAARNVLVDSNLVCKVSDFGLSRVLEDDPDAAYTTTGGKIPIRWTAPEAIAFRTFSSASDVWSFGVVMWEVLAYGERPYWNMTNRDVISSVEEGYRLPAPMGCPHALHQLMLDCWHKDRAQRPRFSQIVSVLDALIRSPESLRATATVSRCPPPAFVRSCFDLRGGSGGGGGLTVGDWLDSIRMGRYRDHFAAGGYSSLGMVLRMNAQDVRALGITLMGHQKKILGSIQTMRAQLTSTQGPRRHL
In short: (§1)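 Compounds were tested at 1 uM in DMSO against each enzyme in the panel. Percent control was calculated as (compound − positive control)/(negative control − positive control) × 100, and a compound was scored active on a kinase when this value fell below 35.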

[2] = target: T2, scanMAX Kinase assay panel (Homo sapiens, UniProt P42679); conditions: CTK; 1 uM; read-out: Percent Control (%)
T2 construct: purchased DiscoverX
T2 sequence (P42679 1-507): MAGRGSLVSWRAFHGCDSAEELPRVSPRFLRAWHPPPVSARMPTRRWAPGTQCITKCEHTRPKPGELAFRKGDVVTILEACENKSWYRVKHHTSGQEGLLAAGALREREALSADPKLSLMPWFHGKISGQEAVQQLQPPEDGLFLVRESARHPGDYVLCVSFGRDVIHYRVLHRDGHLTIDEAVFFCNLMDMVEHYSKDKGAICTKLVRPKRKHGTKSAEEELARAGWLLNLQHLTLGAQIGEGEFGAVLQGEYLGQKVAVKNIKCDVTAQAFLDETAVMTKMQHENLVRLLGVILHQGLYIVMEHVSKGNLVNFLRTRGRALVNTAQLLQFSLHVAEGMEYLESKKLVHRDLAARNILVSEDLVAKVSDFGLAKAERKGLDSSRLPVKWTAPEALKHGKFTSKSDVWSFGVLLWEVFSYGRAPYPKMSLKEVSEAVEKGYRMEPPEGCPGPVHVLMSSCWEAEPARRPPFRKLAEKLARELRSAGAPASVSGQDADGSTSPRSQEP
In short: as §1

[3] = target: T3, scanMAX Kinase assay panel (Homo sapiens, UniProt P54762); conditions: EPHB1; 1 uM; read-out: Percent Control (%)
T3 construct: purchased DiscoverX
T3 sequence (P54762 18-984): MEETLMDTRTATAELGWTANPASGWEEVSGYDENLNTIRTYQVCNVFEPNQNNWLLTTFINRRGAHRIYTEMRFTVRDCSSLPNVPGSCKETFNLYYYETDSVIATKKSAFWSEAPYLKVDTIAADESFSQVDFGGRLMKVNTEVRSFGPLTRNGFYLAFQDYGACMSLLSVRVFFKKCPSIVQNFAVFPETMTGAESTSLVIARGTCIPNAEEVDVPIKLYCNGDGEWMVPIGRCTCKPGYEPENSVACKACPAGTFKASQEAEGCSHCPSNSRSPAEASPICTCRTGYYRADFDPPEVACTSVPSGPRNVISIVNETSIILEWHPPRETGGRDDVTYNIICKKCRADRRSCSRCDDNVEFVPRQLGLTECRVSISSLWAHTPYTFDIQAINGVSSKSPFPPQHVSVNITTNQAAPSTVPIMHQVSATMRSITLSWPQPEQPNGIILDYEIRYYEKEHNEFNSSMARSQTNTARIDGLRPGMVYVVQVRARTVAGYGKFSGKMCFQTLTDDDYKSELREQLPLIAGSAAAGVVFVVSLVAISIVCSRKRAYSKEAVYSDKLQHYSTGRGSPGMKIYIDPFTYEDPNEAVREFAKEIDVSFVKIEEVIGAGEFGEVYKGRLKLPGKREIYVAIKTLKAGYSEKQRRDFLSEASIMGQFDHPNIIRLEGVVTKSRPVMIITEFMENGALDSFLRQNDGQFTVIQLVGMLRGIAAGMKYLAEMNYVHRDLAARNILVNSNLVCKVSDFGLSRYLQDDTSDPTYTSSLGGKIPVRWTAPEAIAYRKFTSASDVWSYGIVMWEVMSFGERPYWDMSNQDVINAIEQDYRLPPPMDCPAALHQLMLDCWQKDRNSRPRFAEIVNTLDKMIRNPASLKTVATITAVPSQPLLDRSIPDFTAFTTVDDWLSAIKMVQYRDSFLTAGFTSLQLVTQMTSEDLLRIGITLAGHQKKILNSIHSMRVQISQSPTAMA
In short: as §1

[4] = target: T4, scanMAX Kinase assay panel (Homo sapiens, UniProt P78362); conditions: SRPK2; 1 uM; read-out: Percent Control (%)
T4 construct: purchased DiscoverX
T4 sequence (P78362 whole entry): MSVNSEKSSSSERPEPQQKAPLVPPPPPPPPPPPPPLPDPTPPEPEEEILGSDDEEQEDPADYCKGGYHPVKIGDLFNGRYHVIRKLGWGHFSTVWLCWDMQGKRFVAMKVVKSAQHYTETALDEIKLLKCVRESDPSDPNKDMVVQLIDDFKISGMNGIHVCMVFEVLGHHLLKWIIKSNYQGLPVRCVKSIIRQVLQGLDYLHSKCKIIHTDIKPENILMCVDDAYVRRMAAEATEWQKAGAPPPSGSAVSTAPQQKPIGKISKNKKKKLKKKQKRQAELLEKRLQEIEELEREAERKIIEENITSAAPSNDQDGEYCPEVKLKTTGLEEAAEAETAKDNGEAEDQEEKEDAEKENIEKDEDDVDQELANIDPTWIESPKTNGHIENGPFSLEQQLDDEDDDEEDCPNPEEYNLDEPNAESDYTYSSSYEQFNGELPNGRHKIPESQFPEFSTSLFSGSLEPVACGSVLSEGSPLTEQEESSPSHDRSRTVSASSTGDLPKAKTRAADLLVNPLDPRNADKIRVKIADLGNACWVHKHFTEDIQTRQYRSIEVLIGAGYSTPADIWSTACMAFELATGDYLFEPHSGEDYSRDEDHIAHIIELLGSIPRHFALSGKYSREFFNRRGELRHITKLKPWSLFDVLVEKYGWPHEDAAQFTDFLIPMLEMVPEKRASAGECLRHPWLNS
In short: as §1

[5] = target: T5, scanMAX Kinase assay panel (Homo sapiens, UniProt Q14004); conditions: CDC2L5; 1 uM; read-out: Percent Control (%)
T5 construct: purchased DiscoverX
T5 sequence (Q14004 whole entry): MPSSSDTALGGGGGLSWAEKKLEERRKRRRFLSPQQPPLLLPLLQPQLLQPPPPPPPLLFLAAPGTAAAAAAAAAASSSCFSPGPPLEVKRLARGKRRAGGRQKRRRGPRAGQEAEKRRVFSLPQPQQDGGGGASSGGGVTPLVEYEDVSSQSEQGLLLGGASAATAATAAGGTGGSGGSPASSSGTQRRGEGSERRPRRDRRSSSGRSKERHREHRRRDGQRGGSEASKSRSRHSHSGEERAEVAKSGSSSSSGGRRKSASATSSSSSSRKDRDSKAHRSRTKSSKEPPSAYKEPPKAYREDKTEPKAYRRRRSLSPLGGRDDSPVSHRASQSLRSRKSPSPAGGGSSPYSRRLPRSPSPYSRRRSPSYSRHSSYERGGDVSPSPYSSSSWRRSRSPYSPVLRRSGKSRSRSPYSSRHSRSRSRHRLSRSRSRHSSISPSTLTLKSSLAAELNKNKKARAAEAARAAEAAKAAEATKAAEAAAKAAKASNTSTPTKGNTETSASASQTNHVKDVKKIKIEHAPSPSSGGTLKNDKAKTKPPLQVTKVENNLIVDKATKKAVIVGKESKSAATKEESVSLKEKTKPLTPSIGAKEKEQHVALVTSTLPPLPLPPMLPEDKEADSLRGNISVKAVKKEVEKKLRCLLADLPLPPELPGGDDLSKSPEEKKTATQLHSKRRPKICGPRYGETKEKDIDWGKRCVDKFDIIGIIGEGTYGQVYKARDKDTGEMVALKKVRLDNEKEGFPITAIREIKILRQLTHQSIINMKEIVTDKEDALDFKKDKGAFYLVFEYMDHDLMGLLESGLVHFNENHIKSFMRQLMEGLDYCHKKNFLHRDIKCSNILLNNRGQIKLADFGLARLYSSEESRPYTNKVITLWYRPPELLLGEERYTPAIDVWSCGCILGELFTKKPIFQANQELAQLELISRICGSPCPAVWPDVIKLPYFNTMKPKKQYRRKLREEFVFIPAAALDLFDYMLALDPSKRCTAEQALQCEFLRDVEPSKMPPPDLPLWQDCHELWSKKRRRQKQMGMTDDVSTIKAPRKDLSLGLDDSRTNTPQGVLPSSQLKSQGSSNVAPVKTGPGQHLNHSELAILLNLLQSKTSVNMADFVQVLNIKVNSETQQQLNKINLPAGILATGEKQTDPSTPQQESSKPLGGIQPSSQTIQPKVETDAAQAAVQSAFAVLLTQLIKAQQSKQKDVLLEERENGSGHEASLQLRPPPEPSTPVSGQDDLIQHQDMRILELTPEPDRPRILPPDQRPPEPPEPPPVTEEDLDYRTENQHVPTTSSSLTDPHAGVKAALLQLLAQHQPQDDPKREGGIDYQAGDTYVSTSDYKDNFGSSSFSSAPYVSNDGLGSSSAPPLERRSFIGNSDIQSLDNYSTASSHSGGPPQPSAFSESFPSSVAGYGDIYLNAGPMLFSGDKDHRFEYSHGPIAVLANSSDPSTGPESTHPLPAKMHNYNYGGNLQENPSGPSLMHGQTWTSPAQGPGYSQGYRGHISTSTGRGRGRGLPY
In short: as §1

| SMILES | remaining binding at 1 µM [1] [%] | remaining binding at 1 µM [2] [%] | remaining binding at 1 µM [3] [%] | remaining binding at 1 µM [4] [%] | remaining binding at 1 µM [5] [%] |
| --- | --- | --- | --- | --- | --- |
| Cc1ccc(NC(=O)C2(C(=O)Nc3ccc(F)cc3)CC2)cc1C#Cc1cnc2c(Nc3cnn(C(C)C)c3)cccn12 [Example 78] | 46 | 90 | 90 | 100 | 100 |
| Cc1cn(-c2cc(NC(=O)c3ccc(C)c(C#Cc4cnc5c(Nc6cnn(C)c6)cccn45)c3)cc(C(F)(F)F)c2)cn1 [Example 12, 4-methyl-N-(3-(4-methyl-1H-imidazol-1-yl)-5-(trifluoromethyl)phenyl)-3-((8-((1-methyl-1H-pyrazol-4-yl)amino)imidazo[1,2-a]pyridin-3-yl)ethynyl)benzamide] | 1 | 74 | 15 | 87 | 27 |
| Cc1ccc(C(=O)Nc2ccc(CN3CCN(C)CC3)c(C(F)(F)F)c2)cc1C#Cc1cnc2c(Nc3cnn(C)c3)cccn12 [Example 1, 4-methyl-3-((8-((1-methyl-1H-pyrazol-4-yl)amino)imidazo[1,2-a]pyridin-3-yl)ethynyl)-N-(4-((4-methylpiperazin-1-yl)methyl)-3-(trifluoromethyl)phenyl)benzamide] | 0 | 22 | 0 | 97 | 5 |
